Reference: article PMC9644403, “L-type Amino Acid Transporter 1 Utilizing Ferulic Acid Derivatives Show Increased Drug Delivery in the Mouse Pancreas Along with Decreased Lipid Peroxidation and Prostaglandin Production” (Molecular Pharmaceutics, 2022)
Where two headings read alike, the source gives them in different places.

Columns and labels:
human erythrocytes = experiment: Erythrocyte morphology, phase-contrast microscopy; assay type: cell-based; conditions: tested 25–100 μM
Description: To further evaluate the safety of derivatives in human blood, the effects of FA, D1, and D2 on hemolysis were studied using a previously described protocol.[31] Shortly, freshly collected erythrocytes were washed three times with 1 mL of 0.9% saline (Sigma-Aldrich, Germany). Subsequently, 2% RBC suspension was prepared by diluting 1 mL of erythrocytes in 50 mL of 0.9% saline. FA, D1, and D2 (1–100 μM) were incubated with the RBC suspension at 37 °C for 1 h. Additionally, negative controls containing 0.9% NaCl and positive controls with Triton X-100 (Polish Chemical Reagents, Poland) were studied. After incubation, the samples were centrifuged at 3 000 rpm for 10 min, and the absorbance values were measured from the collected supernatants at the wavelength of 550 nm. Samples with Triton X (positive control) represented 100% hemolysis. Results of the studies are presented as a percentage of released hemoglobin. The counted CV was 8.1% (n = 5). Additionally, the influence of FA and its derivatives (25–100 μM) on RBC morphology was studied using a phase contrast Opta-Tech inverted microscope. The morphology was analyzed using a dedicated OptaView 7 software (Opta-Tech, Warsaw, Poland).

[1] = In vivo pharmacokinetics in mouse pancreas, liver and kidney after i.p. bolus; conditions: 25 μmol/kg i.p.; for Cmax kidney / Cmax liver / Cmax pancreas / AUCtotal kidney / AUCtotal liver / AUCtotal pancreas / Kp / half-life / Kp,uu (unbound tissue-to-plasma AUC ratio) / Tmax / AUCu, kidney / AUCu, liver / AUCu, pancreas / Cmax, u kidney / Cmax, u liver / Cmax, u pancreas: mice; for AUCtotal kidney / AUCtotal liver / AUCtotal pancreas: n = 3; for pancreas AUC, times higher in comparison to the original FA: mouse pancreas; for Kp / half-life / Kp,uu (unbound tissue-to-plasma AUC ratio) / Tmax: mouse, ip, 25 umol/kg; for Kp: tissue/plasma partition coefficient (eq 2); for half-life: elimination half-life; for AUCu, kidney / AUCu, liver / AUCu, pancreas: unbound (eq 3); for Cmax, u kidney / Cmax, u liver / Cmax, u pancreas: unbound
Description: The pharmacokinetic study of FA, D1, and D2 was performed as previously described,[17] in which the pharmacokinetic parameters for the plasma and brain have been reported. Briefly, the studied compounds were dissolved in a vehicle containing 0.9% (w/v) NaCl in water, and a dose of 25 μmol/kg of the FA, D1, or D2 (n = 3 per compound at each time point) was administered as a bolus intraperitoneal (i.p.) injection for mice. The mice were anesthetized using a mixture of ketamine (140 mg/kg) and xylazine (8 mg/kg) and sacrificed by decapitation at selected time points between 10 and 360 min. The kidney, liver, and pancreas were rapidly collected, snap-frozen on dry ice, and stored at −80 °C until analyzed.
The frozen tissues were weighed and homogenized with ultrapure water (1:3 w/v) by sonicating twice for 5 s with the SoniPrep 150 Plus disintegrator (MSE Ltd., London, UK). The proteins were precipitated by diluting homogenate 1:3 (v/v) with acetonitrile containing the internal standards—chlorzoxazone for FA and diclofenac for derivatives. Samples were then centrifuged at 14 000 × g for 10 min at 4 °C. Supernatants were collected and diluted further 1:1 with ultrapure water and transferred into HPLC vials for the analysis by liquid chromatography-tandem mass spectrometry (LC–MS/MS).
Drug concentrations were analyzed using the LC–MS/MS method described previously,[17] with minor changes. Briefly, the analysis was carried out with an Agilent 1200 Series Rapid Resolution LC System with an Agilent Zorbax XBD-C18 rapid resolution high-throughput (RRHT) column (50 mm × 4.6 mm, 1.8 μm) and an Agilent 6410 triple quadrupole mass spectrometer equipped with an electrospray ionization source (Agilent Technologies, Palo Alto, CA, USA). The LC eluents were water (eluent A) and acetonitrile (eluent B), both containing 0.1% (v/v) formic acid. FA was separated with the following gradient: 0–1 min: 5% B, 1–2 min: 5% B → 90%, 2–4 min: 90% B, 4–4.1 min: 90% B → 5%, and 4.1–7 min: 5% B. For the derivatives, the gradient was as follows: 0–1 min: 10% B, 1–2 min: 10% B → 90%, 2–5 min: 90% B, 5–5.1 min: 90% B → 10%, and 5.1–8 min: 10% B. In both methods, the LC flow rate was 0.3 mL/min, the column temperature was set to 40 °C, and the sample injection volume was 5 μL.
The LC–MS/MS data acquisition for the FA was performed in a negative ion mode with the following conditions: drying gas flow 6.5 l/min with the temperature of 300 °C, nebulizer gas pressure of 20 psi, and capillary voltage of 4 000 V. MRM transitions were 193 → 149 for FA and 168 → 132 for chlorzoxazone. Fragmentor voltages were 100 and 120 V, respectively, and the collision energy was 20 V for both. For D1 and D2, the analysis was performed in a positive ion mode with the following conditions: drying gas flow of 6.5 l/min with the temperature of 300 °C, nebulizer gas pressure of 20 psi, and capillary voltage of 3 000 V. MRM transitions were 371 → 176.8 for D1, 357 → 310.9 for D2, and 296 → 250 for the diclofenac. The fragmentor voltages were 60, 40, and 100 V, and the collision energies were 16, 8, and 10 V, respectively. The data acquisition software was Agilent MassHunter Workstation software (version B.03.01), whereas Quantitative Analysis (B.09.00) software was used for data processing and analysis. The lower limit of quantification for the FA was 0.05 nmol/g and was 0.01 nmol/g for derivatives. The methods were linear, selective, accurate, and precise in the calibration range of 0.05–300 nmol/g for FA and 0.01–300 nmol/g for derivatives.
The time–concentration profiles for studied drugs were calculated using GraphPad Prism v. 5.03 software (GraphPad Software, San Diego, CA, USA). The area under curve (AUC) was calculated using the linear trapezoidal method, providing simultaneously the numeric pharmacokinetic parameters, such as tmax and Cmax. The half-life of elimination (t1/2β) was calculated from a logarithmic slope based on at least the last three detected timepoints. […]

[2] = kidney, read-out: t1/2β, kidney
[3] = kidney, read-out: AUCu, kidney/AUCu plasma
[4] = kidney, read-out: tmax kidney (converted)
[5] = liver, read-out: AUCu, liver/AUCu plasma
[6] = liver, read-out: tmax liver (converted)
[7] = pancreas, read-out: Kp, pancreas
[8] = pancreas, read-out: t1/2β, pancreas
[9] = pancreas, read-out: AUCu, pancreas/AUCu plasma
[10] = pancreas, read-out: tmax pancreas (converted)

For COc1cc(C=CC(=O)NCc2cccc(CC(N)C(=O)O)c2)ccc1O (stereo not shown) [derivative 1], the “concentration at which anisocytosis with formation of macrocytes was observed” value (human erythrocytes) was 50 to 100 µM, the “concentration at which few stomatocytes were detected” value (human erythrocytes) was 100 µM and the Cmax kidney [1] was 20.4 nmol/g. It also gave a Cmax liver [1] of 44.3 nmol/g, a Cmax pancreas [1] of 168 nmol/g and an AUCtotal kidney [1] of 415 nmol·min/g. The AUCtotal liver [1] was 1 769 nmol/g × min, the AUCtotal pancreas [1] was 5 182 nmol/g × min and the “pancreas AUC, times higher in comparison to the original FA” value [1] was 129.2 times. It also gave a Kp ([1]; kidney, read-out: Kp, kidney) of 0.4, a half-life [1, 2] of 11.8 min and a Kp,uu (unbound tissue-to-plasma AUC ratio) [1, 3] of 0.74. For the same compound, the Tmax [1, 4] was 10 min, the Kp ([1]; liver, read-out: Kp, liver) was 1.7 and the half-life ([1]; liver, read-out: t1/2β, liver) was 11.7 min. For the same compound, the Kp,uu (unbound tissue-to-plasma AUC ratio) [1, 5] was 2.9, the Tmax [1, 6] was 10 min and the Kp [1, 7] was 4.97. For the same compound, the half-life [1, 8] was 9.9 min, the Kp,uu (unbound tissue-to-plasma AUC ratio) [1, 9] was 5.54 and the Tmax [1, 10] was 10 min. The “AUCu, kidney” value [1] was 194 nmol·min/g, the “AUCu, liver” value [1] was 752 nmol·min/g and the “AUCu, pancreas” value [1] was 1 452 nmol/g × min. For the same compound, the “Cmax, u kidney” value [1] was 9.6 nmol/g, the “Cmax, u liver” value [1] was 18.8 nmol/g and the “Cmax, u pancreas” value [1] was 47.1 nmol/g.
In the case of COc1cc(/C=C/C(=O)Nc2cccc(C[C@H](N)C(=O)O)c2)ccc1O [derivative 2], the “concentration at which formation of echinocytes was observed” value (human erythrocytes) was 50 to 100 µM, the Cmax kidney [1] was 196 nmol/g and the Cmax liver [1] was 66.4 nmol/g. The Cmax pancreas [1] was 253 nmol/g, the AUCtotal kidney [1] was 3 368 nmol/g × min and the AUCtotal liver [1] was 2 100 nmol/g × min. The AUCtotal pancreas [1] was 8 172 nmol/g × min, the “pancreas AUC, times higher in comparison to the original FA” value [1] was 203.8 times and the Kp ([1]; kidney, read-out: Kp, kidney) was 7.27. For the same compound, the half-life [1, 2] was 8 min, the Kp,uu (unbound tissue-to-plasma AUC ratio) [1, 3] was 25.7 and the Tmax [1, 4] was 10 min. It also gave a Kp ([1]; liver, read-out: Kp, liver) of 4.54, a half-life ([1]; liver, read-out: t1/2β, liver) of 13.1 min and a Kp,uu (unbound tissue-to-plasma AUC ratio) [1, 5] of 12.4. For the same compound, the Tmax [1, 6] was 10 min, the Kp [1, 7] was 17.6 and the half-life [1, 8] was 33.8 min. The Kp,uu (unbound tissue-to-plasma AUC ratio) [1, 9] was 30.6, the Tmax [1, 10] was 30 min and the “AUCu, kidney” value [1] was 1 028 nmol/g × min. For the same compound, the “AUCu, liver” value [1] was 496 nmol·min/g, the “AUCu, pancreas” value [1] was 1 226 nmol/g × min and the “Cmax, u kidney” value [1] was 59.8 nmol/g. The “Cmax, u liver” value [1] was 15.7 nmol/g and the “Cmax, u pancreas” value [1] was 38.0 nmol/g.
COc1cc(C=CC(=O)O)ccc1O [ferulic acid, 4-hydroxy-3-methoxycinnamic acid] gave a Cmax kidney [1] of 14.4 nmol/g, a Cmax liver [1] of 18.0 nmol/g and a Cmax pancreas [1] of 5.4 nmol/g. It also gave an AUCtotal kidney [1] of 140 nmol·min/g, an AUCtotal liver [1] of 408 nmol·min/g and an AUCtotal pancreas [1] of 40.1 nmol·min/g. The Kp ([1]; kidney, read-out: Kp, kidney) was 0.24, the half-life [1, 2] was 3.4 min and the Kp,uu (unbound tissue-to-plasma AUC ratio) [1, 3] was 2.21. The Tmax [1, 4] was 10 min, the Kp ([1]; liver, read-out: Kp, liver) was 0.69 and the half-life ([1]; liver, read-out: t1/2β, liver) was 11.2 min. The Kp,uu (unbound tissue-to-plasma AUC ratio) [1, 5] was 5.5, the Tmax [1, 6] was 10 min and the Kp [1, 7] was 0.07. For the same compound, the Kp,uu (unbound tissue-to-plasma AUC ratio) [1, 9] was 0.64, the Tmax [1, 10] was 10 min and the “AUCu, kidney” value [1] was 139 nmol·min/g. The “AUCu, liver” value [1] was 347 nmol·min/g, the “AUCu, pancreas” value [1] was 40.1 nmol·min/g and the “Cmax, u kidney” value [1] was 14.3 nmol/g. For the same compound, the “Cmax, u liver” value [1] was 15.3 nmol/g and the “Cmax, u pancreas” value [1] was 5.4 nmol/g.
